The record followed here is US20240279600A1, “COMPOSITIONS AND METHODS FOR PROMOTING IN VITRO MATURATION OF CELLS” (MEMORIAL SLOAN-KETTERING CANCER CENTER, priority 2021, published 2024).

“Also recorded” adds a separate entry of the source.

Assay type in all cases: cell-based, human
Data set [1] concerns hPSC-derived cortical neurons from treated NPC. Description: Western blot for maturation markers after transient inhibition of chromatin regulators in NPC. Conditions: NPC treated d12 to d20, neurons analysed d35, versus DMSO. On the technique in general: Immunoblotting shows a protein as a band on a membrane.
Data set [2] shares this test system. Description: Ca2+ imaging (GCaMP6m) after transient inhibition of chromatin regulators in NPC. Particulars: NPC treated d12 to d20, imaging d40, versus DMSO.
Data set [3] deals with hPSC-derived cortical neurons. Description: High-content maturity assay / chemical screen in hPSC-derived cortical neurons. Conditions: for dose-response validation, mean of 4 maturity parameters normalized to DMSO (mean maturation score): 30 nM-10,000 nM, nuclear size and roundness, neurite length, KCl-induced FOS/EGR1+ cells; for number of cells (cell viability / neuron survival): with respect to DMSO, treatment days 7-14, day 21. From the text:
The phenotypic complexity of neurons makes single-readout assays unsuitable to fully capture maturation stages. Therefore, a multi-phenotype approach (via high-content screening, HCS) (Boutros M., Heigwer F. & Laufer C. Cell vol. 163 1314-1325 (2015)) was used to design an assay that simultaneously monitors distinct features of neuronal maturation (FIG. 1A). Dendritic outgrowth is a widely used parameter of neuron maturity (Wu, G. Y. et al., J. Neurosci. 19, 4472-4483 (1999)) and can be monitored through automated tracing of microtubule-associated protein 2 (MAP2) immunostaining (FIGS. 1B and 1C). Changes in nuclear size and morphology are also characteristic of neuron development and maturation (Ito K. & Takizawa T., Frontiers in Genetics vol. 9 (2018)) and can be tracked via DAPI counterstaining (FIGS. 1B and 1C). As an indirect measurement of neuronal function and excitability, the nuclear expression of immediate early gene (IEG) products FOS and EGR1 were quantified following 2 hours of potassium chloride (KCl) stimulation (FIGS. 1B and 1D). IEGs are defined by their rapid induction in the absence of de-novo protein synthesis by stimuli that include sustained membrane depolarization in neurons (Sheng M. & Greenberg M. E., Neuron vol. 4 477-485 (1990)). In contrast to more traditional measures of neuronal activity such as calcium imaging and electrophysiology, IEG immunoreactivity is readily scalable as a readout for thousands of treatment conditions. However, IEGs can be triggered by stimuli other than neuronal activity including growth factor signaling (Greenberg M. E. & Ziff E. B., Nature 311, 433-438 (1984)) and cellular stress responses (Murai J. et al., Cell Rep. 30, 4137-4151.e6 (2020)). Therefore, to avoid direct activation of IEGs, transient compound treatment (day 7-14) was used and all measurements were performed after rinsing of compounds followed by culture in compound-free medium for an additional 7 days (day 14-21) prior to analysis (FIG. 1A). Furthermore, IEGs under both basal and KCl-stimulated conditions were recorded to specifically determine the depolarization-induced signal by subtracting baseline from KCl-induced responses. Measuring maturation readouts only after compound withdrawal enabled the identification of compounds that trigger a long-lasting “memory” of a maturation stimulus even after compound removal.
The present maturity assay was then applied to screen a library of 2688 bioactive compounds in hPSC-derived cortical neurons (FIG. 6A). The library was applied at 5 μM and standard scores (z-scores) of duplicate screen runs were averaged for analysis. Viability was determined by quantifying intact nuclei, and 325 toxic compounds with a z-score below −2 were excluded from further analysis (FIG. 6B). For HCS hit selection, principal component analysis (PCA) was applied to 6 maturity z-scores to identify patterns of distribution among compounds, avoiding single threshold hit discrimination (Singh S. et al., Journal of Biomolecular Screening vol. 19 640-650 (2014)) (FIG. 1E, left panel). The 6 parameters were: nuclear size and roundness, total neurite length and branching (number of segments per cell), and fractions of KCl-induced FOS+ and EGR1+ cells. Three phenotypic clusters of compounds were identified by PCA: maturation enhancers (hits); maturation suppressors, consisting mostly of inhibitors of the PI3K/AKT/mTOR axis; and inducers of non-neuronal contaminant proliferation, which were highly enriched in TGF-β signaling inhibitors as well as inhibitors of rho-associated protein kinase (ROCK) and other signaling pathways (FIG. 1E, right panel).
A bioactive compound library containing 2688 compounds was used for screening at a concentration of 5 μM (Selleck Bioactive Library, Selleck Chemicals). 192 DMSO wells contained within the library were used as negative controls. […]

As to `COc1cc2c(NC3CCN(C(C)C)CC3)nc(C3CCCCC3)nc2cc1OCCCN1CCCC1` [UNC0638, 2-cyclohexyl-6-methoxy-N-(1-propan-2-ylpiperidin-4-yl)-7-(3-pyrrolidin-1-ylpropoxy)quinazolin-4-amine], the “expression of the maturation markers Nefh and Stx1a” value (shortened to “expression”) in data set [1] is “robust increased expression”. Besides, the “synchronicity of the neuronal network (synchronous firing rate)” value (from here on “synchronicity of the neuronal network”) in data set [2] was “significant changes”.

Consider `CC(C)N(C[C@H]1O[C@@H](n2cnc3c(N)ncnc32)[C@H](O)[C@@H]1O)[C@H]1C[C@@H](CCc2nc3cc(C(C)(C)C)ccc3[nH]2)C1` [EPZ-5676, (2R,3R,4S,5R)-2-(6-aminopurin-9-yl)-5-[[[3-[2-(6-tert-butyl-1H-benzimidazol-2-yl)ethyl]cyclobutyl]-propan-2-ylamino]methyl]oxolane-3,4-dioland], for which, in data set [3], the “dose-response validation, mean of 4 maturity parameters normalized to DMSO (mean maturation score)” value is “confirmed hits” and the “number of cells (cell viability / neuron survival)” value is on record as “did not significantly affect neuron survival”.

As to `COC(=O)C1=C(C)NC(C)=C([N+](=O)[O-])C1c1ccccc1C(F)(F)F` (stereo not drawn) [Bay K 8644, methyl 2,6-dimethyl-5-nitro-4-[2-(trifluoromethyl)phenyl]-1,4-dihydropyridine-3-carboxylate], in data set [3], the “dose-response validation, mean of 4 maturity parameters normalized to DMSO (mean maturation score)” value is on record as “confirmed hits” and the “number of cells (cell viability / neuron survival)” value is “did not significantly affect neuron survival”.

Consider `N[C@H]1C[C@@H]1c1ccc(-c2cccc(O)c2)cc1` [OG-L002], for which the “dose-response validation, mean of 4 maturity parameters normalized to DMSO (mean maturation score)” value in data set [3] is listed as “confirmed hits”.

Take `O=C(O)c1ccc(CN2CCC(CN[C@@H]3C[C@H]3c3ccccc3)CC2)cc1` [GSK2879552, 4-[[4-[[[(1R,2S)-2-phenylcyclopropyl]amino]methyl]piperidin-1-yl]methyl]benzoic acid]: in data set [3], the “dose-response validation, mean of 4 maturity parameters normalized to DMSO (mean maturation score)” value is on record as “stronger combined effect than OG-L002; also recorded: confirmed hits” and the “number of cells (cell viability / neuron survival)” value is “did not significantly affect neuron survival”.

Turning to `CCCc1cc(C)[nH]c(=O)c1CNC(=O)c1cc(-c2ccnc(N3CCN(C)CC3)c2)cc2c1cnn2C(C)C` [GSK343, N-[(6-methyl-2-oxo-4-propyl-1H-pyridin-3-yl)methyl]-6-[2-(4-methylpiperazin-1-yl)pyridin-4-yl]-1-propan-2-ylindazole-4-carboxamide], in data set [1], the “expression” value is “robust increased expression”. In data set [2], the “amplitude of individual Ca2+ spikes” value was “marked and highly significant increase”; the “frequency of individual Ca2+ spikes” value was “marked and highly significant increase”; the “synchronicity of the neuronal network” value was “marked and highly significant increase”.

As to `CC(C)N(CCCNC(=O)Nc1ccc(C(C)(C)C)cc1)C[C@H]1O[C@@H](n2ccc3c(N)ncnc32)[C@H](O)[C@@H]1O` [EPZ004777, 1-[3-[[(2R,3S,4R,5R)-5-(4-aminopyrrolo[2,3-d]pyrimidin-7-yl)-3,4-dihydroxyoxolan-2-yl]methyl-propan-2-ylamino]propyl]-3-(4-tert-butylphenyl)urea], the “expression” value in data set [1] was “robust increased expression”. Moreover, in data set [2], the “synchronicity of the neuronal network” value is “modest functional enhancement with an increased synchronous firing rate”.
